{"source": "PubChem BioAssay AID2060363", "about": "(Molecular Pharmacology Branch, DTP, NCI, 2025);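 also: spheroids exposed to compounds for 7 days before the endpoint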", "tested_on": "156681-154-R-J1-PDC tumor spheroids, viability % test/control", "test": "Anticancer human tumor 156681-154-R-J1-PDC patient-derived melanoma cell line growth inhibition [TAK]", "settings": "spheroids with HUVEC and MSC; for IC50: curve of first compound; for viability, T/C: stronger effect = lower value", "from_the_text": "Combinatorial screen of targeted agents with TAK-243 and ipatasertib in multi-cell type tumor spheroids\nA high-throughput screen of multi-cell type tumor spheroids was designed to identify active combinations of targeted small molecules and TAK-243 or ipatasertib. Complex spheroids include a stromal component modeled by human endothelial cells (HUVEC) and fibroblasts modeled by human mesenchymal stem cells (MSCs). The concentration ranges selected for each drug and investigational agent were based upon clinically achievable concentrations if the clinical Cmax of the agent was known.\nCompounds. The drugs and investigational agents: TAK-243 (785004), ipatasertib (767898), everolimus (733504), selumetinib (741078), bortezomib (756655), trametinib (758246), ixazomib (758254), vemurafenib (761431), dabrafenib (764134), sapanisertib (764658), alpelisib (765974), and copanlisib (816437), were obtained from the National Cancer Institute (NCI) Developmental Therapeutics Program Chemical Repository. The FDA-approved anticancer drug set is available from the NCI Developmental Therapeutics Program. […] The stock solutions were prepared in dimethyl sulfoxide (DMSO, Sigma-Aldrich, St. Louis, MO, cat. D2650) at 800-fold the tested concentration and stored at -70 degrees C prior to their use. All drugs and investigational agents were tested over a range starting from a high concentration at or near the clinical Cmax and decreasing in half-log increments. If the clinical Cmax for an agent had not been determined, the highest concentration tested was 10 microM.\nNCI60 Cell Culture. NCI60 cell lines were obtained from the NCI Developmental Therapeutics Program Tumor Repository. For each lot of cells, the Repository performed Applied Biosystems AmpFLSTR Identifiler testing with PCR amplification to confirm consistency with the published Identifier STR profile for each cell line. Cells were kept in continuous culture for no more than 20 passages. The optimal seeding densities for each of the cell lines at each time point assessed were determined prior to performing the concentration response studies. Briefly, the NCI60 human tumor lines were grown as monolayers in RPMI 1640 medium supplemented with 10% FBS and 2 mmol/L L-glutamine.\nAn additional 2 lines were from the NCI60 cell line panel including melanomas, MALME-3M and SK-MEL-2. Pooled donor human umbilical vein endothelial cells (HUVEC, Lonza, cat. CC-2519) and human mesenchymal stem cells (hMSC, Lonza, cat. PT-2501) were purchased from Lonza (Walkersville, MD).\nPDMR cell lines were grown in complete medium (DC medium): Dulbecco's modified Eagle's medium (DMEM)/F12 supplemented with 5% fetal bovine serum (FBS), 2 mM L-glutamine, 100 U/mL penicillin and 100 µg/ml streptomycin, 0.4 µg/ml hydrocortisone, 10 ng/ml epidermal growth factor (EGF) recombinant human protein, 24 µg/mL adenine, and 0.1 mg/mL primocin. During culture from frozen stock vials, PDMR cells were cultured in the same medium containing 10 µM Y-27632 (see Table 3). The PDCs were cultured in complete DMEM/F12 media without 10 microM Y-27632 dihydrochloride for at least two passages prior to the screen. The pooled donor HUVEC and hMSC were cultured in endothelial cell growth medium 2 (PromoCell, Heidelberg, Germany, cat. C-22011) and mesenchymal stem cell growth medium 2 (PromoCell, cat. C-28009), respectively. For all experiments, HUVEC and hMSC were used at passages </=5.\nFor the pre-screen, cell seeding densities were determined from a titration spanning the range from 5,000 to 313 cells per well. The mct-spheroids including 60% malignant cells, 25% HUVEC and 15% MSC dispensed as a mixture into U-bottom Ultra-Low Attachment 384-well plates (Corning, NY)\nHigh-throughput Drug Combination Screening.\nPrior to their inoculation into 384-well plates, malignant cells, HUVEC, and hMSC were removed from T flasks using TrypLE express (Thermo Fisher Scientific, cat. 12605036) and harvested by centrifugation for 5 min at 233 x g. […]"}
{"smiles": "CCCS(=O)(=O)Nc1ccc(F)c(C(=O)c2c[nH]c3ncc(-c4ccc(Cl)cc4)cc23)c1F", "note": "+ CC(C)NCC(C(=O)N1CCN(c2ncnc3c2C(C)CC3O)CC1)c1ccc(Cl)cc1", "values": [{"measurement": "IC50", "setting": "second compound 0.3 µM", "result": 8190, "unit": "nM"}, {"measurement": "IC50", "setting": "second compound 0.949 µM", "result": 7510, "unit": "nM"}, {"measurement": "IC50", "setting": "second compound 3 µM", "result": 3820, "unit": "nM"}, {"measurement": "IC50", "setting": "second compound 9.49 µM", "result": "< 316", "unit": "nM"}, {"measurement": "IC50", "setting": "second compound 30 µM", "result": "< 316", "unit": "nM"}, {"measurement": "viability, T/C", "setting": "second compound 0.3 µM, first compound 0.316 µM", "result": 104, "unit": "%"}, {"measurement": "viability, T/C", "setting": "second compound 0.3 µM, first compound 1 µM", "result": 111, "unit": "%"}, {"measurement": "viability, T/C", "setting": "second compound 0.3 µM, first compound 3.16 µM", "result": 103, "unit": "%"}, {"measurement": "viability, T/C", "setting": "second compound 0.3 µM, first compound 10 µM", "result": 24.5, "unit": "%"}, {"measurement": "viability, T/C", "setting": "second compound 0.3 µM, first compound 31.6 µM", "result": 0.49, "unit": "%"}, {"measurement": "viability, T/C", "setting": "second compound 0.3 µM, first compound 100 µM", "result": 91.8, "unit": "%"}, {"measurement": "viability, T/C", "setting": "second compound 0.949 µM, first compound 0.316 µM", "result": 89.5, "unit": "%"}, {"measurement": "viability, T/C", "setting": "second compound 0.949 µM, first compound 1 µM", "result": 101, "unit": "%"}, {"measurement": "viability, T/C", "setting": "second compound 0.949 µM, first compound 3.16 µM", "result": 85.2, "unit": "%"}, {"measurement": "viability, T/C", "setting": "second compound 0.949 µM, first compound 10 µM", "result": 15.7, "unit": "%"}, {"measurement": "viability, T/C", "setting": "second compound 0.949 µM, first compound 31.6 µM", "result": 16.6, "unit": "%"}, {"measurement": "viability, T/C", "setting": "second compound 0.949 µM, first compound 100 µM", "result": 82.9, "unit": "%"}, {"measurement": "viability, T/C", "setting": "second compound 3 µM, first compound 0.316 µM", "result": 83, "unit": "%"}, {"measurement": "viability, T/C", "setting": "second compound 3 µM, first compound 1 µM", "result": 72.8, "unit": "%"}, {"measurement": "viability, T/C", "setting": "second compound 3 µM, first compound 3.16 µM", "result": 58.8, "unit": "%"}, {"measurement": "viability, T/C", "setting": "second compound 3 µM, first compound 10 µM", "result": 6.57, "unit": "%"}, {"measurement": "viability, T/C", "setting": "second compound 3 µM, first compound 31.6 µM", "result": 3.37, "unit": "%"}, {"measurement": "viability, T/C", "setting": "second compound 3 µM, first compound 100 µM", "result": 3.64, "unit": "%"}, {"measurement": "viability, T/C", "setting": "second compound 9.49 µM, first compound 0.316 µM", "result": 41.6, "unit": "%"}, {"measurement": "viability, T/C", "setting": "second compound 9.49 µM, first compound 1 µM", "result": 42.8, "unit": "%"}, {"measurement": "viability, T/C", "setting": "second compound 9.49 µM, first compound 3.16 µM", "result": 36.5, "unit": "%"}, {"measurement": "viability, T/C", "setting": "second compound 9.49 µM, first compound 10 µM", "result": 1.52, "unit": "%"}, {"measurement": "viability, T/C", "setting": "second compound 9.49 µM, first compound 31.6 µM", "result": 0.38, "unit": "%"}, {"measurement": "viability, T/C", "setting": "second compound 9.49 µM, first compound 100 µM", "result": 0.73, "unit": "%"}, {"measurement": "viability, T/C", "setting": "second compound 30 µM, first compound 0.316 µM", "result": 19.2, "unit": "%"}, {"measurement": "viability, T/C", "setting": "second compound 30 µM, first compound 1 µM", "result": 19.2, "unit": "%"}, {"measurement": "viability, T/C", "setting": "second compound 30 µM, first compound 3.16 µM", "result": 4.74, "unit": "%"}, {"measurement": "viability, T/C", "setting": "second compound 30 µM, first compound 10 µM", "result": 0.42, "unit": "%"}, {"measurement": "viability, T/C", "setting": "second compound 30 µM, first compound 31.6 µM", "result": 0.39, "unit": "%"}, {"measurement": "viability, T/C", "setting": "second compound 30 µM, first compound 100 µM", "result": 0.5, "unit": "%"}]}
{"smiles": "Cn1cnc2c(F)c(Nc3ccc(Br)cc3Cl)c(C(=O)NOCCO)cc21", "note": "+ CC(C)NCC(C(=O)N1CCN(c2ncnc3c2C(C)CC3O)CC1)c1ccc(Cl)cc1", "values": [{"measurement": "IC50", "setting": "second compound 0.3 µM", "result": 602, "unit": "nM"}, {"measurement": "IC50", "setting": "second compound 0.949 µM", "result": 493, "unit": "nM"}, {"measurement": "IC50", "setting": "second compound 3 µM", "result": 331, "unit": "nM"}, {"measurement": "IC50", "setting": "second compound 9.49 µM", "result": "< 9.49", "unit": "nM"}, {"measurement": "IC50", "setting": "second compound 30 µM", "result": "< 9.49", "unit": "nM"}, {"measurement": "viability, T/C", "setting": "second compound 0.3 µM, first compound 0.00949 µM", "result": 96.6, "unit": "%"}, {"measurement": "viability, T/C", "setting": "second compound 0.3 µM, first compound 0.03 µM", "result": 97, "unit": "%"}, {"measurement": "viability, T/C", "setting": "second compound 0.3 µM, first compound 0.0949 µM", "result": 83.8, "unit": "%"}, {"measurement": "viability, T/C", "setting": "second compound 0.3 µM, first compound 0.3 µM", "result": 81.2, "unit": "%"}, {"measurement": "viability, T/C", "setting": "second compound 0.3 µM, first compound 0.949 µM", "result": 30, "unit": "%"}, {"measurement": "viability, T/C", "setting": "second compound 0.3 µM, first compound 3 µM", "result": 9.69, "unit": "%"}, {"measurement": "viability, T/C", "setting": "second compound 0.949 µM, first compound 0.00949 µM", "result": 81.1, "unit": "%"}, {"measurement": "viability, T/C", "setting": "second compound 0.949 µM, first compound 0.03 µM", "result": 78.3, "unit": "%"}, {"measurement": "viability, T/C", "setting": "second compound 0.949 µM, first compound 0.0949 µM", "result": 86.2, "unit": "%"}, {"measurement": "viability, T/C", "setting": "second compound 0.949 µM, first compound 0.3 µM", "result": 71.3, "unit": "%"}, {"measurement": "viability, T/C", "setting": "second compound 0.949 µM, first compound 0.949 µM", "result": 21.4, "unit": "%"}, {"measurement": "viability, T/C", "setting": "second compound 0.949 µM, first compound 3 µM", "result": 7.25, "unit": "%"}, {"measurement": "viability, T/C", "setting": "second compound 3 µM, first compound 0.00949 µM", "result": 69.1, "unit": "%"}, {"measurement": "viability, T/C", "setting": "second compound 3 µM, first compound 0.03 µM", "result": 73.4, "unit": "%"}, {"measurement": "viability, T/C", "setting": "second compound 3 µM, first compound 0.0949 µM", "result": 68.6, "unit": "%"}, {"measurement": "viability, T/C", "setting": "second compound 3 µM, first compound 0.3 µM", "result": 53.6, "unit": "%"}, {"measurement": "viability, T/C", "setting": "second compound 3 µM, first compound 0.949 µM", "result": 13.1, "unit": "%"}, {"measurement": "viability, T/C", "setting": "second compound 3 µM, first compound 3 µM", "result": 4.67, "unit": "%"}, {"measurement": "viability, T/C", "setting": "second compound 9.49 µM, first compound 0.00949 µM", "result": 43.3, "unit": "%"}, {"measurement": "viability, T/C", "setting": "second compound 9.49 µM, first compound 0.03 µM", "result": 44.8, "unit": "%"}, {"measurement": "viability, T/C", "setting": "second compound 9.49 µM, first compound 0.0949 µM", "result": 36.6, "unit": "%"}, {"measurement": "viability, T/C", "setting": "second compound 9.49 µM, first compound 0.3 µM", "result": 24.6, "unit": "%"}, {"measurement": "viability, T/C", "setting": "second compound 9.49 µM, first compound 0.949 µM", "result": 7.73, "unit": "%"}, {"measurement": "viability, T/C", "setting": "second compound 9.49 µM, first compound 3 µM", "result": 1.63, "unit": "%"}, {"measurement": "viability, T/C", "setting": "second compound 30 µM, first compound 0.00949 µM", "result": 20.6, "unit": "%"}, {"measurement": "viability, T/C", "setting": "second compound 30 µM, first compound 0.03 µM", "result": 17.8, "unit": "%"}, {"measurement": "viability, T/C", "setting": "second compound 30 µM, first compound 0.0949 µM", "result": 15.7, "unit": "%"}, {"measurement": "viability, T/C", "setting": "second compound 30 µM, first compound 0.3 µM", "result": 10.4, "unit": "%"}, {"measurement": "viability, T/C", "setting": "second compound 30 µM, first compound 0.949 µM", "result": 2.66, "unit": "%"}, {"measurement": "viability, T/C", "setting": "second compound 30 µM, first compound 3 µM", "result": 0.54, "unit": "%"}]}
